# Source: the supplement of paper PMC10307832
# Key:
# Experiment in all cases: relative viability (nuclei count vs DMSO), 5 days (fraction); higher = more cells survive
# LXF-289 = conditions: first compound 4 µM
# Outline: (§1)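 Relative viability equals treated-well nuclei counts divided by vehicle-well nuclei counts. Counts came from 4× images of lung cancer cell lines grown in 1536-well plates for 5 days after pin-tool dosing on the day after seeding. Dosing used one drug alone or a fixed anchor-drug dose plus five library-drug doses (not always all listed) in √10 steps, and values are medians of duplicate plates.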
# NCI-H2126 = system: NCI-H2126
# Outline: as §1
# NCI-H1755 = system: NCI-H1755
# Outline: as §1
# HCC-15 = system: HCC-15
# Outline: as §1
# RERF-LC-KJ = system: RERF-LC-KJ
# Outline: as §1
# LC-2-ad = system: LC-2-ad
# Outline: as §1
# NCI-H647 = system: NCI-H647
# Outline: as §1
# HOP-62 = system: HOP-62
# Outline: as §1
# SW 1573 = system: SW 1573
# Outline: as §1
# NCI-H1792 = system: NCI-H1792
# Outline: as §1
# NCI-H2228 = system: NCI-H2228
# Outline: as §1
smiles,measurement,setting,value
Cc1sc2c(c1C)C(c1ccc(Cl)cc1)=N[C@@H](CC(=O)OC(C)(C)C)c1nnc(C)n1-2 [JQ1] + Cc1nc(NC(=O)N2CCC[C@H]2C(N)=O)sc1-c1ccnc(C(C)(C)C(F)(F)F)c1 [Alpelisib] (partner 2 µM),relative viability,LXF-289,0.634
same,relative viability,NCI-H2126; first compound 0.04 µM,0.797
same,relative viability,NCI-H2126; first compound 0.1265 µM,0.682
same,relative viability,NCI-H2126; first compound 0.4 µM,0.681
same,relative viability,NCI-H2126; first compound 1.265 µM,0.516
same,relative viability,NCI-H2126; first compound 4 µM,0.47
same,relative viability,NCI-H1755; first compound 0.04 µM,0.916
same,relative viability,NCI-H1755; first compound 0.1265 µM,0.918
same,relative viability,NCI-H1755; first compound 0.4 µM,1.01
same,relative viability,NCI-H1755; first compound 1.265 µM,0.623
same,relative viability,NCI-H1755; first compound 4 µM,0.533
same,relative viability,HCC-15; first compound 0.04 µM,0.806
same,relative viability,HCC-15; first compound 0.4 µM,0.768
same,relative viability,HCC-15; first compound 1.265 µM,0.417
same,relative viability,HCC-15; first compound 4 µM,0.449
same,relative viability,RERF-LC-KJ; first compound 0.04 µM,0.806
same,relative viability,RERF-LC-KJ; first compound 0.1265 µM,0.925
same,relative viability,RERF-LC-KJ; first compound 0.4 µM,0.793
same,relative viability,RERF-LC-KJ; first compound 1.265 µM,0.743
same,relative viability,RERF-LC-KJ; first compound 4 µM,0.427
same,relative viability,LC-2-ad; first compound 0.04 µM,0.953
same,relative viability,LC-2-ad; first compound 0.1265 µM,0.794
same,relative viability,LC-2-ad; first compound 0.4 µM,0.54
same,relative viability,LC-2-ad; first compound 1.265 µM,0.289
same,relative viability,LC-2-ad; first compound 4 µM,0.217
same,relative viability,NCI-H647; first compound 0.04 µM,0.998
same,relative viability,NCI-H647; first compound 0.1265 µM,0.596
same,relative viability,NCI-H647; first compound 0.4 µM,0.447
same,relative viability,NCI-H647; first compound 1.265 µM,0.156
same,relative viability,NCI-H647; first compound 4 µM,0.132
same,relative viability,HOP-62; first compound 0.04 µM,1.2
same,relative viability,HOP-62; first compound 0.1265 µM,0.728
same,relative viability,HOP-62; first compound 0.4 µM,0.332
same,relative viability,HOP-62; first compound 1.265 µM,0.182
same,relative viability,HOP-62; first compound 4 µM,0.09
same,relative viability,SW 1573; first compound 0.04 µM,0.808
same,relative viability,SW 1573; first compound 0.1265 µM,0.702
same,relative viability,SW 1573; first compound 0.4 µM,0.714
same,relative viability,SW 1573; first compound 1.265 µM,0.439
same,relative viability,SW 1573; first compound 4 µM,0.383
same,relative viability,NCI-H1792; first compound 0.04 µM,0.702
same,relative viability,NCI-H1792; first compound 0.4 µM,0.722
same,relative viability,NCI-H1792; first compound 1.265 µM,0.411
same,relative viability,NCI-H1792; first compound 4 µM,0.364
same,relative viability,NCI-H2228; first compound 0.04 µM,0.644
same,relative viability,NCI-H2228; first compound 0.1265 µM,0.602
same,relative viability,NCI-H2228; first compound 0.4 µM,0.504
same,relative viability,NCI-H2228; first compound 1.265 µM,0.497
same,relative viability,NCI-H2228; first compound 4 µM,0.451
